ChEMBL document CHEMBL3244338, “Antineoplastic agents. Structure-activity relationship study of bis(substituted aminoalkylamino)anthraquinones” (J Med Chem, 1978)
Activity calls are given as the source filed them. No cut-off for these calls is given here.

Legend:
[1] = tested on: Mus musculus; test: Toxicity in mouse P388 cells allografted BDF1 mouse assessed as body weight difference at 25 mg/kg administered 24 hrs post challenge relative to control; format: organism-based; set-up: dose 25 mg/kg; conditions: in vivo
[2] = tested on: Mus musculus; test: Toxicity in mouse P388 cells allografted BDF1 mouse assessed as body weight difference at 100 mg/kg administered 24 hrs post challenge relative to control; format: organism-based; set-up: dose 100 mg/kg; conditions: in vivo
[3] = tested on: P388; test: Antitumor activity against mouse P388 cells allografted in BDF1 mouse assessed as increase in survival time at 100 mg/kg administered 24 hrs post challenge relative to control; format: functional
[4] = tested on: P388; test: Antitumor activity against mouse P388 cells allografted in BDF1 mouse assessed as mouse survival at 100 mg/kg administered 24 hrs post challenge relative to control; format: functional, organism-based; set-up: dose 100 mg/kg
[5] = tested on: Mus musculus; test: Toxicity in mouse P388 cells allografted BDF1 mouse assessed as body weight difference at 50 mg/kg administered 24 hrs post challenge relative to control; format: organism-based; set-up: dose 50 mg/kg; conditions: in vivo
[6] = tested on: P388; test: Antitumor activity against mouse P388 cells allografted in BDF1 mouse assessed as mouse survival at 25 mg/kg administered 24 hrs post challenge relative to control; format: functional, organism-based; set-up: dose 25 mg/kg
[7] = tested on: P388; test: Antitumor activity against mouse P388 cells allografted in BDF1 mouse assessed as increase in survival time at 50 mg/kg administered 24 hrs post challenge relative to control; format: functional
[8] = tested on: P388; test: Antitumor activity against mouse P388 cells allografted in BDF1 mouse assessed as mouse survival at 50 mg/kg administered 24 hrs post challenge relative to control; format: functional, organism-based; set-up: dose 50 mg/kg
[9] = tested on: P388; test: Antitumor activity against mouse P388 cells allografted in BDF1 mouse assessed as increase in survival time at 25 mg/kg administered 24 hrs post challenge relative to control; format: functional
[10] = tested on: P388; test: Antitumor activity against mouse P388 cells allografted in BDF1 mouse assessed as increase in survival time at 16 mg/kg administered 24 hrs post challenge relative to control; format: functional
[11] = tested on: P388; test: Antitumor activity against mouse P388 cells allografted in BDF1 mouse assessed as increase in survival time at 8 mg/kg administered 24 hrs post challenge relative to control; format: functional
[12] = tested on: P388; test: Antitumor activity against mouse P388 cells allografted in BDF1 mouse assessed as mouse survival at 32 mg/kg administered 24 hrs post challenge relative to control; format: functional, organism-based; set-up: dose 32 mg/kg
[13] = tested on: L1210; test: Antitumor activity against mouse L1210 cells allografted in BDF1 mouse assessed as increase in survival time at 12.5 mg/kg administered 24 hrs post challenge relative to control; format: functional
[14] = tested on: P388; test: Antitumor activity against mouse P388 cells allografted in BDF1 mouse assessed as mouse survival at 8 mg/kg administered 24 hrs post challenge relative to control; format: functional, organism-based; set-up: dose 8 mg/kg
[15] = tested on: L1210; test: Antitumor activity against mouse L1210 cells allografted in BDF1 mouse assessed as increase in survival time at 25 mg/kg administered 24 hrs post challenge relative to control; format: functional
[16] = tested on: P388; test: Antitumor activity against mouse P388 cells allografted in BDF1 mouse assessed as increase in survival time at 4 mg/kg administered 24 hrs post challenge relative to control; format: functional
[17] = tested on: P388; test: Antitumor activity against mouse P388 cells allografted in BDF1 mouse assessed as mouse survival at 16 mg/kg administered 24 hrs post challenge relative to control; format: functional, organism-based; set-up: dose 16 mg/kg
[18] = tested on: P388; test: Antitumor activity against mouse P388 cells allografted in BDF1 mouse assessed as increase in survival time at 32 mg/kg administered 24 hrs post challenge relative to control; format: functional
[19] = tested on: Mus musculus; test: Toxicity in mouse P388 cells allografted BDF1 mouse assessed as body weight difference at 4 mg/kg administered 24 hrs post challenge relative to control; format: organism-based; set-up: dose 4 mg/kg; conditions: in vivo
[20] = tested on: Mus musculus; test: Toxicity in mouse P388 cells allografted BDF1 mouse assessed as body weight difference at 32 mg/kg administered 24 hrs post challenge relative to control; format: organism-based; set-up: dose 32 mg/kg; conditions: in vivo
[21] = tested on: Mus musculus; test: Toxicity in mouse P388 cells allografted BDF1 mouse assessed as body weight difference at 8 mg/kg administered 24 hrs post challenge relative to control; format: organism-based; set-up: dose 8 mg/kg; conditions: in vivo
[22] = tested on: P388; test: Antitumor activity against mouse P388 cells allografted in BDF1 mouse assessed as mouse survival at 4 mg/kg administered 24 hrs post challenge relative to control; format: functional, organism-based; set-up: dose 4 mg/kg
[23] = tested on: Mus musculus; test: Toxicity in mouse P388 cells allografted BDF1 mouse assessed as body weight difference at 16 mg/kg administered 24 hrs post challenge relative to control; format: organism-based; set-up: dose 16 mg/kg; conditions: in vivo
[24] = tested on: L1210; test: Antitumor activity against mouse L1210 cells allografted in BDF1 mouse assessed as increase in survival time at 6.25 mg/kg administered 24 hrs post challenge relative to control; format: functional
[25] = tested on: P388; test: Antitumor activity against mouse P388 cells allografted in BDF1 mouse assessed as increase in survival time at 3.13 mg/kg administered 24 hrs post challenge relative to control; format: functional
[26] = tested on: P388; test: Antitumor activity against mouse P388 cells allografted in BDF1 mouse assessed as increase in survival time at 6.25 mg/kg administered 24 hrs post challenge relative to control; format: functional
[27] = tested on: Mus musculus; test: Toxicity in mouse P388 cells allografted BDF1 mouse assessed as body weight difference at 6.25 mg/kg administered 24 hrs post challenge relative to control; format: organism-based; set-up: dose 6.25 mg/kg; conditions: in vivo
[28] = tested on: P388; test: Antitumor activity against mouse P388 cells allografted in BDF1 mouse assessed as mouse survival at 6.25 mg/kg administered 24 hrs post challenge relative to control; format: functional, organism-based; set-up: dose 6.25 mg/kg
[29] = tested on: P388; test: Antitumor activity against mouse P388 cells allografted in BDF1 mouse assessed as increase in survival time at 12.5 mg/kg administered 24 hrs post challenge relative to control; format: functional
[30] = tested on: P388; test: Antitumor activity against mouse P388 cells allografted in BDF1 mouse assessed as mouse survival at 3.13 mg/kg administered 24 hrs post challenge relative to control; format: functional, organism-based; set-up: dose 3.13 mg/kg
[31] = tested on: Mus musculus; test: Toxicity in mouse P388 cells allografted BDF1 mouse assessed as body weight difference at 12.5 mg/kg administered 24 hrs post challenge relative to control; format: organism-based; set-up: dose 12.5 mg/kg; conditions: in vivo
[32] = tested on: Mus musculus; test: Toxicity in mouse P388 cells allografted BDF1 mouse assessed as body weight difference at 3.13 mg/kg administered 24 hrs post challenge relative to control; format: organism-based; set-up: dose 3.13 mg/kg; conditions: in vivo
[33] = tested on: P388; test: Antitumor activity against mouse P388 cells allografted in BDF1 mouse assessed as mouse survival at 12.5 mg/kg administered 24 hrs post challenge relative to control; format: functional, organism-based; set-up: dose 12.5 mg/kg
[34] = tested on: P388; test: Antitumor activity against mouse P388 cells allografted in BDF1 mouse assessed as increase in survival time at 400 mg/kg administered 24 hrs post challenge relative to control; format: functional
[35] = tested on: P388; test: Antitumor activity against mouse P388 cells allografted in BDF1 mouse assessed as increase in survival time at 200 mg/kg administered 24 hrs post challenge relative to control; format: functional
[36] = tested on: Mus musculus; test: Toxicity in mouse P388 cells allografted BDF1 mouse assessed as body weight difference at 200 mg/kg administered 24 hrs post challenge relative to control; format: organism-based; set-up: dose 200 mg/kg; conditions: in vivo
[37] = tested on: P388; test: Antitumor activity against mouse P388 cells allografted in BDF1 mouse assessed as mouse survival at 400 mg/kg administered 24 hrs post challenge relative to control; format: functional, organism-based; set-up: dose 400 mg/kg
[38] = tested on: P388; test: Antitumor activity against mouse P388 cells allografted in BDF1 mouse assessed as mouse survival at 200 mg/kg administered 24 hrs post challenge relative to control; format: functional, organism-based; set-up: dose 200 mg/kg
[39] = tested on: Mus musculus; test: Toxicity in mouse P388 cells allografted BDF1 mouse assessed as body weight difference at 400 mg/kg administered 24 hrs post challenge relative to control; format: organism-based; set-up: dose 400 mg/kg; conditions: in vivo

Row | SMILES | Activity [1] | Activity [2] | T/C [3] | Activity [4] | Activity [5] | Activity [6] | T/C [7] | Activity [8] | T/C [9] | T/C [29] | Activity [31] | further results
1 | O=C1c2ccccc2C(=O)c2c(NCCSCCO)ccc(NCCSCCO)c21 | -1.6 g | -2.2 g | 94% | Active | -1.4 g | Active | 86% | Active | 95% | – | – | –
2 | CCCNCCNc1ccc(NCCNCCC)c2c1C(=O)c1ccccc1C2=O | -0.8 g | -2.6 g | 124% | Active | -1.7 g | Active | 125% | Active | 118% | – | – | –
3 | O=C1c2ccccc2C(=O)c2c(NCCCCCO)ccc(NCCCCCO)c21 | -1.4 g | -4 g | 88% | Active | -1.5 g | Active | 78% | Active | 88% | – | – | –
4 | O=C1c2ccccc2C(=O)c2c(NCCNCCO)ccc(NCCNCCO)c21 [AMETANTRONE] | – | – | – | – | – | – | – | – | – | – | – | T/C [10]: 275%; T/C [11]: 276%; Activity [12]: Active; T/C [13]: 227%; Activity [14]: Active; T/C [15]: 272%; T/C [16]: 275%; Activity [17]: Active; T/C [18]: 81%; Activity [19]: 0 g; Activity [20]: -5.9 g; Activity [21]: -2 g; Activity [22]: Active; Activity [23]: -3.9 g; T/C [24]: 156%
5 | CCNCCNc1ccc(NCCNCC)c2c1C(=O)c1ccccc1C2=O | -4.8 g | – | – | – | – | – | – | – | 132% | 168% | -2.8 g | T/C [25]: 142%; T/C [26]: 149%; Activity [27]: -2.2 g; Activity [28]: Active; Activity [30]: Active; Activity [32]: -2.3 g
6 | O=C1c2ccccc2C(=O)c2c(NCCCNCCO)ccc(NCCCNCCO)c21 | -2.1 g | -2.6 g | 98% | – | -2.1 g | – | 133% | Active | 130% | 117% | -1.4 g | Activity [33]: Active; T/C [26]: 101%; Activity [27]: 0.9 g; Activity [28]: Active
7 | O=C1c2ccccc2C(=O)c2c(NCCNCCNCCO)ccc(NCCNCCNCCO)c21 | -1.6 g | -2.6 g | 120% | – | -1.3 g | Active | 112% | Active | 110% | – | – | –
8 | CNCCNc1ccc(NCCNC)c2c1C(=O)c1ccccc1C2=O | – | – | – | – | – | – | – | – | – | 200% | -1.9 g | Activity [33]: Active
9 | O=C1c2ccccc2C(=O)c2c3c(cc(NCCNCCO)c21)N(CCO)CCN3 | -3.2 g | -3.8 g | 101% | – | -3.5 g | Active | 163% | – | 155% | – | – | –
10 | O=C1c2ccccc2C(=O)c2c(NCCN3CCNCC3)ccc(NCCN3CCNCC3)c21 | -1 g | – | – | – | -2.7 g | Active | 134% | – | 137% | 117% | -1.1 g | Activity [33]: Active; T/C [26]: 125%; Activity [27]: -0.4 g; Activity [28]: Active
11 | O=C1c2ccccc2C(=O)c2c(NCCN3CCCCC3)ccc(NCCN3CCCCC3)c21 | -3.6 g | -4.5 g | 128% | Active | -2.9 g | Active | 110% | Active | 104% | – | – | –
12 | COc1ccc(CCNc2ccc(NCCc3ccc(OC)c(OC)c3)c3c2C(=O)c2ccccc2C3=O)cc1OC | – | -1.7 g | 86% | Active | – | – | – | – | – | – | – | T/C [34]: 91%; T/C [35]: 101%; Activity [36]: -3.2 g; Activity [37]: Active; Activity [38]: Active; Activity [39]: -2.9 g
